How the values were obtained:
tomato (cv. Carousel) = assay: Long term growth and yield study after JA seed treatment, tomato; format: in vivo, Solanum lycopersicum
Text: (§1) Data are means of 8 replicate plants+/−standard error of the mean, and the line is a fitted growth response.

pepper = assay: Long term growth and yield study after JA seed treatment, pepper; format: in vivo; settings: seed treatment 1.5 or 3.0 mM JA, weekly harvests
Text: as §1

[1] = tested on: tomato (Solanum lycopersicum cv "Carousel") seeds; assay: Effect of JA seed treatment on seed germination of tomato; format: in vivo
Text: The illustrated data are means of 10 replicate populations+/−standard error of the mean, and the line is a fitted dose response.

[2] = Dissolution of JA in water when preparing the solution; format: physicochemical; settings: 250 mg JA; ethanol needed first
Method: 6. 1 ml of ethanol was added to the vial of JA using a 1000 μl Gilson pipette, the lid of the vial replaced and the vial shaken to dissolve the JA.

[3] = tested on: Tetranychus urticae (two-spotted spider mite); assay: JA seed treatment, tomato plants challenged with two-spotted spider mite; format: in vivo; settings: tomato cv. Carousel
Method: (§2) Tomato, pepper, maize and wheat seeds were treated with 3 mM JA or 1.5 mM JA solutions or with 3 mM methyl jasmonate (MeJA) or with deionised water containing 42.8 mM ethanol (control) by full submersion of up to 40 seeds in a Petri dish of solution wrapped in foil for a period of 24 hours at 4° C. in a fridge. A temperature of 4° C. was used both to prevent degradation of the jasmonic acid solutions and to prevent germination of the seeds.
The seeds were then removed from the treatment solution and washed in 1 liter of deionised water for 5 minutes to remove the JA or MeJA coating the outside of the seeds.
Tomato seeds were sown in rockwool blocks and grown on peat-based compost in glass houses at 12° C.-28° C. under artificial light on a 16 hour light and 8 hour dark cycle for 48, 56 or 70 days.
(§3) Tomato plants were then challenged with Tetranychus urticae (two-spotted spider mite) which were allowed to feed for 9 days, Manduca sexta (tobacco hornworm) caterpillars which were allowed to feed for 4 days or Myzus persicae (aphid), which were allowed to feed for 10 or 12 days. In each case these organisms were restricted to the plant on which they had originally been placed. Pepper plants were challenged with Myzus persicae (aphid), which were allowed to feed for 2 weeks. Maize and wheat plants were challenged with Spodoptera exempta caterpillars which were allowed to feed for 2 days (maize) or 3 days (wheat).
The effect of Tetranychus urticae on plants was measured by means of counting the number of live and dead mites on each plant and the number of mite eggs present using a dissecting microscope.
Seeds of a UK commercial F1 hybrid tomato variety (cv. Carousel) were treated with either 1.5 or 3.0 mM jasmonic acid (JA) and 42.8 mM ethanol in deionised H2O for a period of 24 hours at 4° C. in the dark. Those seeds were then removed from solution and washed in deionised H2O only to remove the JA coating the outside of the seed. Those seed were then germinated in a commercial manner using rockwool blocks and were grown on under glasshouse conditions appropriate to this crop. Plants were challenged with two-spotted spider mite (Tetranychus urticae) 7 weeks after treatment a common crop pest, acting here as a “model herbivore”.

[4] = tested on: Manduca sexta (tobacco hornworm); assay: JA seed treatment, tomato plants challenged with Manduca sexta caterpillars; format: in vivo; settings: tomato cv. Carousel, seed treatment 1.5 mM JA, 4 days feeding
Method: as §2
as §3, with “Maize and wheat plants were challenged with Spodoptera exempta caterpillars which were allowed to feed for 2 days (maize) or 3 days (wheat).” left out
The effect of Manduca sexta or Spodoptera exempta on plants was determined by measurement of the leaf area eaten, measured using a leaf area meter.
Seeds of a UK commercial F1 hybrid tomato variety (cv. Carousel) were treated with 1.5 mM jasmonic acid (JA), and plants grown in conditions appropriate to this crop (as described under Example 1). […] Caterpillars were allowed to feed on the plants for four days and the area of grazed leaves was then measured. […]

[5] = tomato cv. Carousel, JA seed treatment vs control, 8 replicate plants

CC/C=C\C[C@H]1C(=O)CC[C@@H]1CC(=O)O [JA, jasmonic acid]
Fruit dry weight at each weekly harvest (tomato (cv. Carousel); [5]): no significant effects | Number of fruit at each weekly harvest (tomato (cv. Carousel); [5]): no significant effects | Plant height at each weekly harvest (tomato (cv. Carousel); [5]): no significant effects | Vegetative or reproductive growth, or commercial yield (tomato (cv. Carousel); tomato, seed treatment 1.5 or 3.0 mM JA, weekly harvests): no significant effect | Vegetative or reproductive growth, or commercial yield (pepper): no significant effect | JA concentration that significantly reduced the final percentage germination ([1]; JA between 0.001 and 50 mM tested, germination 7 days after sowing): > 10 mM | Final percentage germination ([1]; seed treatment 1.5 or 3.0 mM JA): no significant effects | Delay of seed germination ([1]; seed treatment 1.5 or 3.0 mM JA, 24 hours at 4 C in the dark): delayed by approximately one day | Solubility in water [2]: will not dissolve in water directly | Observed resistance induced against spider mite ([3]; 8 weeks after application of the JA to the seeds): significant | Visual damage caused by red spider mite attack (pale stippling of the leaf surface) ([3]; seed treatment 3.0 mM JA vs control, challenged 7 weeks after treatment): substantially reduced | Reproductive rate of the mite measured by egg production (eggs per adult female) compared with control plants ([3]; seed treatment 1.5 or 3.0 mM JA, 10 replicates): significant reduction | Population of two-spotted spider mite on the leaves (number of live mites) compared with control plants ([3]; seed treatment 1.5 or 3.0 mM JA, mites fed 9 days, 10 replicates): significant reduction | Caterpillar growth, less than those feeding on controls [4]: 20% | Leaf area remaining after grazing, compared with controls ([4]; challenged 8 weeks after seed treatment): significantly higher

Source: patent publication US8507756B2, “Plant protection” (Plant Bioscience Limited, priority 2007, dated 2013)
